Test results reported in patent US7312248B2, “Control of parasites in animals by the use of novel trifluoromethanesulfonanilide oxime ether derivatives” (Schering-Plough Animal Health Corporation, priority 2004, dated 2007).
Like-named read-outs stand apart in the source and are kept apart here.

Key:
Type in all cases: in vivo
[1] = system: Brown Dog Tick (Rhipicephalus sanguineus); assay: Dose response protocol for topical application on brown dog ticks (LD50); conditions: 24 h mortality
Procedure: e) Dose response protocol for topical application on brown dog ticks (Rhipicephalus sanguineus): The test determines the level of insecticidal activity of sample compounds or formulations when applied topically on brown dog ticks. Sample compounds were stored prior to use in a freezer (−5±1° C.), unless otherwise specified.
• Mortality: A tick is defined as dead after it gives no apparent response when touched lightly or gently breathed upon, while observed for 30 seconds. • LD50 (Lethal Dose 50): The dose of a topically applied treatment at which 50% of the dog ticks are killed. • Reference compound: To assess an experimental compound for significant acaricidal activity a single dose level is chosen, which is based upon known results from previous experiments using a commercially available active i.e., a reference compound. The reference compound selected is one in common use, and one that has a similar mode of action against the Brown Dog Tick (i.e., the test species). • Recovery container: A recovery container consists of a 500 ml round plastic container measuring 115 mm diameter and 70 mm height, with a tight fitting lid that has 10 small (˜1 mm) holes inserted for air exchange. A 90 mm diameter piece of filter paper was placed on the bottom of the container and moistened with 1 mL of de-stilled water.
Adult, mixed sex, Brown Dog Ticks (Rhipicephalus sanguineus) were reared as follows: (i) cultured, (ii) transferred unfed, to a testing laboratory, and (iii) then maintained under controlled conditions (i.e., temp. 18°±2° C., humidity 75±5% RH). The ticks used were selected for vigor prior to testing, i.e., capable of actively walking and responsive to being touched or gently breathed upon.
During the testing, the temperature was maintained at 25±1° C., and the humidity was ambient. Seven dose levels (concentrations) of sample compound, in the form of serial dilutions in acetone, were derived from a pilot study and covered a range that produced very low to very high mortality. Groups of ten ticks were treated topically (on the abdomen) with 1 μL of a single dose level of the sample compound. Each test was replicated four times, i.e., employing a total of 40 ticks per dose level of each sample compound. As a control, ten ticks were treated with solvent only (acetone) for each test. Following the treatment, the ticks were held in recovery containers maintained under appropriate rearing conditions for 24 hours. Mortality resulting from the treatments was recorded at 24 hours. […] Press, London (1971).]

[2] = system: Haemonchus contortus; assay: Haemonchus contortus larvacidal (larval development) assay; conditions: 144 h, read-out: Haemonchus contortus LD99
Procedure, shortened: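 Nematode eggs placed on agar containing compound (12 two-fold dilutions, final 0.024–50 μg/ml) and left 6 days to develop to L3. LD99 is the lowest concentration inhibiting development of 99% of larvae, derived from well titre (2^n−1) and top concentration.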

[3] = system: cat flea (Ctenocephalides felis); assay: whole plant or invertebrate; conditions: Ctenocephalides felis
Procedure, shortened: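 Single-dose screen at 1.26 μg/cm^2: acetone solution dried for 24 h on a Coatasil-treated 159 mm^2 flask base, then 15 adult cat fleas aged 3-7 days per flask, four or more replicates, acetone control. Percent dead, meaning not moving or unable to right themselves, recorded after 8, 24 and/or 48 h at 25 °C and 75% RH.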

[4] = system: Brown Dog Tick (Rhipicephalus sanguineus); assay: Rapid screening protocol for topical application on brown dog ticks; conditions: 48 h; Laboratory 2 F data
[5] = system: cat flea (Ctenocephalides felis); assay: Ctenocephalides felis adulticide assay: dose response (LC50)
Procedure, shortened: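 Groups of 15 adult cat fleas, 3–7 days post-emergence, were exposed for 24 h at 25° C and 75% humidity to glass flask bases coated with six serial doses in acetone and dried for 24 h. Mortality was scored at 8 and 24 h, and LC50 was the surface-treatment concentration killing 50%.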

[6] = 8 h, read-out: C. felis Mortality (%) 8 h, 8 h, Laboratory 2 B data
[7] = 24 h, read-out: C. felis Mortality (%) 24 h, 24 h, Laboratory 2 B data

SMILES	R. sanguineus LD50 [1] [μg/tick]	IC99 [2] [µg/mL]	mortality at 1.26 µg/cm2, 1.26 µg/cm2 ([3]; 24 h, read-out: C. felis Mortality (%) 24 h, 24 h, Laboratory 1 A data) [%]	R. sanguineus Mortality (%) 48 h [4] [%]	C. felis LC50 ([5]; Laboratory 1 C data) [μg/cm^2]	C. felis LC50 ([5]; Laboratory 2 D data)	mortality at 1.26 µg/cm2, 1.26 µg/cm2 [3, 6] [%]	mortality at 1.26 µg/cm2, 1.26 µg/cm2 [3, 7] [%]
CC/C(=N\Oc1ccc(F)cc1)c1cc(Cl)ccc1NS(=O)(=O)C(F)(F)F [Compound 130, N-{4-chloro-2-[1-(4-fluorophenoxyimino)propyl]phenyl}trifluoromethanesulfonamide]	1.5	1.5	100	100	0.2	0.03 μg/cm^2		
CC/C(=N\OCC1CCCO1)c1cc(Cl)ccc1NS(=O)(=O)C(F)(F)F (stereo not drawn) [Compound 205]	3.1			100		0.02^D μg/cm^2	97	98
CC/C(=N\OCc1cccs1)c1cc(Cl)ccc1NS(=O)(=O)C(F)(F)F [Compound 207, N-{4-chloro-2-[1-(thiophen-2-ylmethoxyimino)propyl]phenyl}trifluoromethanesulfonamide]	2.5			100		0.007^D μg/cm^2	98	100
C#CCO/N=C(\CC)c1cc(Cl)ccc1NS(=O)(=O)C(F)(F)F [Compound 208]	0.8			100		0.02^D μg/cm^2	100	100
CC(C)/C(=N\Oc1ccc(Cl)cc1)c1cc(Cl)ccc1NS(=O)(=O)C(F)(F)F [Compound 215, N-{4-chloro-2-[1-(4-chlorophenoxyimino)-2-methylpropyl]phenyl}trifluoromethanesulfonamide]	1.7			87		0.07^D μg/cm^2	82	100
C/C(=N\OC(C)(C)C)c1cc(Cl)ccc1NS(=O)(=O)C(F)(F)F [Compound 223]	1.4			97		0.04^D μg/cm^2	92	100
CC/C(=N\OC(C)(C)C)c1cc(Cl)ccc1NS(=O)(=O)C(F)(F)F [Compound 224]	1.5			95		0.04^D μg/cm^2	83	100
